Converted amounts (≈) assume the structure as drawn. “And” between values parts separate entries of the source, which are not always exact repeats. Identical values can stand only once. Like-named read-outs stand apart in the source and are kept apart here.
How the values were obtained:
[1] = tested on: carrageenin-induced plantar oedema; assay: Anti-inflammatory activity, carrageenin-induced plantar oedema test on rats (intraperitoneal); format: in vivo; details: for percentage variation in volume, (V2 - V1)/V1 × 100, individual rats: 200 mg/kg (expressed as weight of compound); for percentage variation in volume, (V2 - V1)/V1 × 100, individual rats / percentage variation in volume, mean (X): 3 hours; for percentage variation in volume, mean (X): controls 88.22% ± 10.5; for Percentage variation: mean oedema versus controls
Protocol: The anti-inflammatory activity of 1-o-acetoxybenzoyl-4-hydroxy-L-proline was studied by means of the carrageenin-induced plantar oedema test on rats.
[…] of each rat in three groups of 8 to 9 rats was injected with carrageenin at time Ho. The first group was a control group and the second and third groups were test groups. The volume (V1) of the paw was then measured, and the compounds to be tested were administered intraperitoneally. The volume (V2) of the same paw was measured again three hours later.

[2] = acute toxicity, intraperitoneal administration to mice; details: mouse, in vivo, ip
Source text: The LD50 of the compound according to the invention, when administered intraperitoneally to mice, was about 10g/kg, whilst it was about 3g/kg for lysine acetylsalicylate.

[3] = tested on: hyperthermia caused by the injection of brewer's yeast; assay: Antipyretic activity, hyperthermia caused by injection of brewer's yeast; format: in vivo, rats; details: intraperitoneal; for central temperature: 200 mg to 400 mg/kg, 37.28 ± 0.052 at Ho
Protocol: The antipyretic activity of 1-o-acetoxybenzoyl-4-hydroxyl-L-proline was assessed by the hyperthermia caused by the injection of brewer's yeast 17 hours before the start of the experiment (groups of 8 rats + 1 comparison group without yeast). The first temperature measurement was made at time Ho and the compounds to be tested were then administered intraperitoneally. The central temperature was then checked 1 hour 30 minutes, 3 hours and 4 hours 30 minutes after Ho.

mice = assay: acute toxicity on intravenous administration to mice; format: in vivo
Source text: (§1) acute toxicity on intravenous administration to mice
(§2) The acute toxicity of 1-o-acetoxybenzoyl-4-hydroxy-L-proline was investigated by comparison with an injectable aspirin, namely lysine acetylsalicylate. The acetylsalicylic acid content of the two compounds was substantially the same (about 50%).
(§3) (Intravenous administration to mice)
(§4) *x/5: number of dead animals amongst 5 animals tested.

[4] = tested on: phenylbenzoquinone cramping; assay: Analgesic activity, phenylbenzoquinone cramping test; format: in vivo; details: oral; for Percentage change in number of cramps versus control / Number of cramps / Percentage inhibition relative to the control animals: 2 hours before test; for Number of cramps: control 449
Protocol: The analgesic activity of 1-o-acetoxybenzoyl-4-hydroxy-L-proline was studied by means of the phenylbenzoquinone cramping test, in comparison with the same injectable aspirin as that used in Example 2, the two compouns being administered orally 2 hours before the test on groups of 10 animals; a control group of animals to which neither compound was administered was also used.

Solubility in water = format: physicochemical
rats = assay: Analgesic activity, Randall-Selitto test on rats; format: in vivo
Source text: The analgesic activity of 1-o-acetoxybenzoyl-L-proline was studied on rats by means of the Randall-Selitto test (Arch. int. Pharmacodyn., 1957, 111, 409, 419).

[5] = tested on: carrageenin-induced oedema; assay: Anti-inflammatory activity, carrageenin-induced oedema test on rats (intramuscular); format: in vivo; details: for % inhibition / % Variation in the volume of the oedema: 3 hours; for % Variation in the volume of the oedema: comparisons 107.39 ± 5.19
Protocol: The anti-inflammatory activity of 1-o-acetoxybenzoyl-L-proline was studied by means of the carrageenin-induced oedema test on rats. In this test, the antiinflammatory activity of the compound according to the invention was compared with that of an injectable aspirin, namely lysine acetylsalicylate.
the compounds were injected intramuscularly, 30 minutes before the carrageenin. The volume of the oedema was measured three hours afterwards.

[6] = acute toxicity on intravenous administration to mice; format: in vivo; details: mouse, in vivo; intravenous, mice
Source text: as §1, §2, §3, §4

[7] = acute toxicity, oral administration to mice; details: mouse, in vivo, orally
gastric ulcers = details: administered orally; known disadvantage; cited from earlier work
[8] = 50 mg/kg (expressed as weight of compound)
[9] = 100 mg/kg (expressed as weight of compound)
[10] = 50 mg/kg (expressed as acetylsalicylic acid)
[11] = 100 mg/kg (expressed as acetylsalicylic acid)

Structure (SMILES)	percentage variation in volume, mean (X) ([1]; 200 mg/kg)	Percentage variation ([1]; 200 mg/kg)	central temperature ([3]; 1 hr 30 mins after Ho)	central temperature ([3]; 3 hrs after Ho)	central temperature ([3]; 4 hrs 30 mins after Ho)	number of dead animals amongst 5 animals tested (mice; intravenous, mice, 1,500 mg/kg)	number of dead animals amongst 5 animals tested (mice; intravenous, mice, 3,000 mg/kg)	Inhibition % (rats; 50 mg/kg, 1 hour)	Inhibition % (rats; 50 mg/kg, 2 hours)	Inhibition % (rats; 50 mg/kg, 4 hours)	Inhibition % (rats; 100 mg/kg, 1 hour)	Inhibition % (rats; 100 mg/kg, 2 hours)	Inhibition % (rats; 100 mg/kg, 4 hours)	Inhibition % (rats; 200 mg/kg, 1 hour)	Inhibition % (rats; 200 mg/kg, 2 hours)	Inhibition % (rats; 200 mg/kg, 4 hours)	% inhibition ([5]; 50 mg/kg)	% Variation in the volume of the oedema ([5]; 50 mg/kg)	% inhibition ([5]; 100 mg/kg)	% Variation in the volume of the oedema ([5]; 100 mg/kg)	further results
CC(=O)Oc1ccccc1C(=O)N1CC(O)C[C@H]1C(=O)O (stereo partly drawn) [1-o-acetoxybenzoyl-4-hydroxy-L-proline]	66.61 ± 9.7%	-24%	36.12 °C	36.40 °C	36.82 °C	0/5	0/5														percentage variation in volume, (V2 - V1)/V1 × 100, individual rats ([1]; listed as Compound according to the invention): 63.6% and 64% and 82.5% and 82.3% and 63.5% and 61.6% and 67.4% and 53.7% and 60.9%; anti-inflammatory activity (in words) ([1]; 200 mg/kg, versus injectable aspirin): very good anti-inflammatory activity, markedly superior to that of the injectable aspirin; LD50 [2]: ~10000 mg/kg; antipyretic activity (in words) ([3]; versus injectable aspirin): greater than that of the injectable aspirin; toxicity (in words) (mice; intravenous, mice): substantially non-toxic; number of dead animals amongst 5 animals tested (mice; intravenous, mice, 700 mg/kg): 0/5; number of dead animals amongst 5 animals tested (mice; intravenous, mice, 4,000 mg/kg): 0/5; immediate symptoms (mice; mouse, in vivo, iv): practically no symptoms; Percentage change in number of cramps versus control [4, 8]: -12%; Number of cramps [4, 8]: 396; Percentage change in number of cramps versus control [4, 9]: -57%; Number of cramps [4, 9]: 194; analgesic activity relative to the injectable aspirin ([4]; phenylbenzoquinone test): practically twice that of the injectable aspirin; solubility (Solubility in water; pH = 3): ~50 mg/mL (≈ 170 mM)
CC(=O)Oc1ccccc1C(=O)N1CCC[C@H]1C(=O)O [1-o-acetoxybenzoyl-L-proline]								59.49%	67.57%	44.00%	74.68%	89.19%	53.33%	98.73%	130.98%	104.01%	2.48%	104.73 ± 7.23%	23.97%	81.65 ± 5.97%	analgesic activity (in words) (rats; dose of 100 mg): comparable to that of lysine acetylsalicylate used at medium doses; % inhibition ([5]; 200 mg/kg): 29.50%; % Variation in the volume of the oedema ([5]; 200 mg/kg): 75.71 ± 4.8%; antiinflammatory activity (in words) ([5]; dose of 100 mg): comparable to that of lysine acetylsalicylate used at medium doses; solubility (Solubility in water): 50 mg/mL (≈ 180 mM)
CC(=O)Oc1ccccc1C(=O)O [Lysine acetylsalicylate, lysine acetylsalicylate, reference compound]	74.29% ± 9.36	-16%	36.64 °C	36.92 °C	36.90 °C	0/5	3/5	72.98%	60.26%	65.79%	85.14%	97.44%	73.68%	105.40%	124.36%	111.84%	16.74%	89.41 ± 9.39%	27.56%	77.79 ± 5.39%	percentage variation in volume, (V2 - V1)/V1 × 100, individual rats ([1]; listed as Injectable aspirin): 74.4% and 83.3% and 70.7% and 68.3% and 87.5% and 61% and 85% and 64%; LD50 ([2]; intraperitoneally, mice, read-out: LD50): ~3000 mg/kg; immediate symptoms (mice; intravenous, mice): pronounced, with depression, ataxia and convulsions occurring; number of dead animals amongst 5 animals tested (mice; intravenous, mice, 2,000 mg/kg): 5/5; number of dead animals amongst 5 animals tested (mice; intravenous, mice, 3,500 mg/kg): 5/5; LD50 [6]: ~2000 mg/kg; Percentage inhibition relative to the control animals [4, 10]: -14%; Number of cramps [4, 10]: 386; Percentage inhibition relative to the control animals [4, 11]: -56%; Number of cramps [4, 11]: 196; LD50 [7]: 3000 mg/kg; % inhibition ([5]; 200 mg/kg): 41.76%; % Variation in the volume of the oedema ([5]; 200 mg/kg): 62.54 ± 6.83%
CC(=O)Oc1ccccc1C(=O)O [acetylsalicylic acid]																					ulcerogenic activity (gastric ulcers): ulcerogenic
